{"source": "patent US12551536B2", "about": "“Semaglutide in medical therapy” (Novo Nordisk A/S, priority 2017, dated 2026)", "assay": "26-week clinical trial in adult patients with T2D: gastrointestinal adverse events incl. nausea", "type": "in vivo, human", "details": "on-treatment", "procedure": "A 26-week, randomized, double-blind clinical trial was carried out with adult patients with T2D, HbA1c 7.0-10.0% (53-86 mmol/mol), and body mass index 24.0-40.0 kg/m^2 who were treated with diet and exercise±metformin. […] The primary endpoint was change in HbA1c from baseline to week 26. Key exclusion criteria were a history of chronic or idiopathic acute pancreatitis and moderate-to-severe renal impairment (estimated glomerular filtration rate <60 mL/min/1.73 m^2).\nTrial drug administration: Following a 2-week screening period, patients received trial medication for 26 weeks, followed by a 7-week follow-up period. […] The trial was double blinded within (but not between) each dose level of semaglutide, liraglutide and placebo, as treatment was volume matched.", "key": {"[1]": {"details": "Sema 0.05 mg once daily s.c., N 64"}, "[2]": {"details": "Sema 0.1 mg once daily s.c., N 63"}, "[3]": {"details": "Sema 0.2 mg once daily s.c., N 65"}, "[4]": {"details": "Sema 0.3 mg once daily s.c., N 63"}}, "data": [{"substance": "N^6.26-{18-[N-(17-carboxyheptadecanoyl)-L-γ-glutamyl]-10-oxo-3,6,12,15-tetraoxa-9,18-diazaoctadecanoyl}-[8-(2-amino-2-propanoic acid),34-L-arginine]human glucagon-like peptide 1(7-37) [Sema]", "values": [{"measurement": "Gastrointestinal adverse events, % (percentage of patients experiencing at least one event)", "setting": "Sema 0.05 mg once daily s.c.", "value": 32.8, "unit": "%"}, {"measurement": "Gastrointestinal adverse events, E (number of events)", "setting": "Sema 0.05 mg once daily s.c.", "value": 61}, {"measurement": "Nausea, % (percentage of patients experiencing at least one event)", "setting": "Sema 0.05 mg once daily s.c.", "value": 17.2, "unit": "%"}, {"measurement": "Nausea, E (number of events)", "setting": "Sema 0.05 mg once daily s.c.", "value": 16}, {"measurement": "Gastrointestinal adverse events, Ne (number of patients experiencing at least one event)", "setting": "[1]", "value": 21}, {"measurement": "Nausea, Ne (number of patients experiencing at least one event)", "setting": "[1]", "value": 11}, {"measurement": "Gastrointestinal adverse events, % (percentage of patients experiencing at least one event)", "setting": "Sema 0.1 mg once daily s.c.", "value": 44.4, "unit": "%"}, {"measurement": "Gastrointestinal adverse events, E (number of events)", "setting": "Sema 0.1 mg once daily s.c.", "value": 90}, {"measurement": "Nausea, % (percentage of patients experiencing at least one event)", "setting": "Sema 0.1 mg once daily s.c.", "value": 19.0, "unit": "%"}, {"measurement": "Nausea, E (number of events)", "setting": "Sema 0.1 mg once daily s.c.", "value": 20}, {"measurement": "Gastrointestinal adverse events, Ne (number of patients experiencing at least one event)", "setting": "[2]", "value": 28}, {"measurement": "Nausea, Ne (number of patients experiencing at least one event)", "setting": "[2]", "value": 12}, {"measurement": "Gastrointestinal adverse events, % (percentage of patients experiencing at least one event)", "setting": "Sema 0.2 mg once daily s.c.", "value": 46.2, "unit": "%"}, {"measurement": "Gastrointestinal adverse events, E (number of events)", "setting": "Sema 0.2 mg once daily s.c.", "value": 106}, {"measurement": "Nausea, % (percentage of patients experiencing at least one event)", "setting": "Sema 0.2 mg once daily s.c.", "value": 21.5, "unit": "%"}, {"measurement": "Nausea, E (number of events)", "setting": "Sema 0.2 mg once daily s.c.", "value": 22}, {"measurement": "Gastrointestinal adverse events, Ne (number of patients experiencing at least one event)", "setting": "[3]", "value": 30}, {"measurement": "Nausea, Ne (number of patients experiencing at least one event)", "setting": "[3]", "value": 14}, {"measurement": "Gastrointestinal adverse events, % (percentage of patients experiencing at least one event)", "setting": "Sema 0.3 mg once daily s.c.", "value": 54.0, "unit": "%"}, {"measurement": "Gastrointestinal adverse events, E (number of events)", "setting": "Sema 0.3 mg once daily s.c.", "value": 101}, {"measurement": "Nausea, % (percentage of patients experiencing at least one event)", "setting": "Sema 0.3 mg once daily s.c.", "value": 25.4, "unit": "%"}, {"measurement": "Nausea, E (number of events)", "setting": "Sema 0.3 mg once daily s.c.", "value": 22}, {"measurement": "Gastrointestinal adverse events, Ne (number of patients experiencing at least one event)", "setting": "[4]", "value": 34}, {"measurement": "Nausea, Ne (number of patients experiencing at least one event)", "setting": "[4]", "value": 16}]}]}
